From article PMC2941486 (Journal of Biomedical Science, 2010)
Marks after values point to notes of the source that are not given here. Square brackets hold non-standard residues; d marks the D form. Peptide text beside a SMILES is read from it. Dopa = N[C@@H](Cc1ccc(O)c(O)c1)C(=O)O; dPhg = N[C@@H](C(=O)O)c1ccccc1

How the values were obtained:
[1] = target: T1, intestinal peptide transporter I (PepT1) (Rattus norvegicus, UniProt P51574); assay: BBMV uptake of d-phenylglycine-l-dopa with or without competitors; format: in vitro ADME; conditions: pH 7.4, room temperature
T1 construct: brush-boarder membrane vesicle (BBMV) prepared from rat intestine; from tissue; host or cells: rat intestine, brush-border membrane vesicles made by magnesium precipitation
T1 sequence (P51574 1-710): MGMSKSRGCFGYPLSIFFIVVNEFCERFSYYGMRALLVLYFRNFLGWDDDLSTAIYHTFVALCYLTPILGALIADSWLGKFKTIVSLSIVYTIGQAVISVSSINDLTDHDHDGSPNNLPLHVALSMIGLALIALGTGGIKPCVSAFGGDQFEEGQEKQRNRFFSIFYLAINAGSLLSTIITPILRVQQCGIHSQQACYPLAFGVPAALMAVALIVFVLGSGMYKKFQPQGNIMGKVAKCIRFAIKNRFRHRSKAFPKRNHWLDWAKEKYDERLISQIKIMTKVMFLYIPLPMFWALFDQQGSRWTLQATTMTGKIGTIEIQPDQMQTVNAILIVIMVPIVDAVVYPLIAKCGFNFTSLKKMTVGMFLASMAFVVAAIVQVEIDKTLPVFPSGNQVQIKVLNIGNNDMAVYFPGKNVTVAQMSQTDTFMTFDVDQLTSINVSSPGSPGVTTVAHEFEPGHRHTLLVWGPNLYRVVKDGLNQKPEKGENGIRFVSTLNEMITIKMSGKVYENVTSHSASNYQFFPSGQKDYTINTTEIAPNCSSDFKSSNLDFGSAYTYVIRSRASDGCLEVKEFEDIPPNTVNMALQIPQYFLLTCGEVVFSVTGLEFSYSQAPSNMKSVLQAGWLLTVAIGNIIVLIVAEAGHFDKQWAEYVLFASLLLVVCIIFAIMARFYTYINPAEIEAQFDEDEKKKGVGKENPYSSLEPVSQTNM

[2] = Stability in rat intestinal mucosa suspension; format: in vitro ADME; conditions: pH 6.5 isotonic buffer, 37°C
Description: Mucosa suspension was prepared from the intestine of male Wistar rats according to established method and was stored in an ice bath before use.
The stability of d-phenylglycine-l-dopa in the intestine was determined prior to the intestinal absorption studies. In order to simulate intestinal microclimate pH, the compound was incubated with the intestinal mucosal suspension in a pH 6.5 isotonic buffer solution. l-Gly-l-Phe comprising essential amino acids degraded rapidly with only 50% of recovery after 2 min of incubation. d-Phenylglycine-l-dopa, on the other hand, was very stable with almost 100% of recovery after 90 min of incubation (Figure 3).
Figure 3 Comparison of the stability of d-phenylglycine-l-dopa and l-Gly-l-Phe in rat intestinal mucosa suspension. Each point represents mean ± SE. of 3 experiments. A methanolic solution (100 μl) of the test compound (1 mg/ml) was diluted with an isotonic mannitol buffer solution (pH 6.5, 2.4 ml) as the stock solution. This stock solution (1 ml) was mixed with the freshly prepared mucosal suspension (1 ml). The mixture was incubated in a water bath at 37°C and subjected to sampling at intervals between zero to 90 min of incubation. Each sampled solution (200 μl) was denatured with 0.8 ml of MeOH and centrifuged at 6,600 g for 5 min. Each of the supernatant (20 - 100 μl) was subjected to HPLC assay.

[3] = In situ single-pass jejunal perfusion; format: in vivo, rat; conditions: for Blood concentration: steady-state plasma concentration after jejunal perfusion, l-dopa detected in only one of three rats
Description: Literature procedure was followed for the preparation of perfusion solutions and the jejunal segments. To maximize the absorption and to prevent the test compounds from being oxidized during perfusion, the experiments were performed at pH 6.0 with 0.02% (w/v) ascorbic acid added as antioxidant and nitrogen gas was bubbled through for 10 min before each experiment. Perfusion solution was pumped through the jejunal segment at a flow rate of 0.2 ml/min by a syringe pump (Stoelting, KD Scientific, U.S.A.). The jejunal segment was pre-washed with drug-free buffer for 10 min before the drug solution was pumped in. Outlet tubing samples were collected every 10 min for 6 collection periods after water and solute transport reached steady-state. The dimensionless membrane permeability Pm* [28] was measured as indications for the disappearance rate of test compound from the intestine. Plasma samples were withdrawn from carotid artery.
The absorption of d-phenylglycine-l-dopa and l-dopa was compared in rats by in situ single-pass jejunal perfusion experiments. Amidon's dimensionless cross-membrane permeability (Pm*) was determined as a parameter of intestinal absorption. The steady-state plasma concentration was also determined (Table 1).

[4] = Pharmacokinetics after i.v. and oral administration; format: in vivo, Wistar rats; conditions: for AUC / half-life / clearance / Vd / Tmax: Wistar, rat, plasma, 5.97 mg/kg; for clearance: read-out: Clp; for Vd: read-out: Vdss; for Fraction of absorption (BA): oral vs i.v., Equation 1, rats
Description: Rats were fasted for at least 18 h prior to drug administration. Anaesthesia was induced by i.p. injection of urethane (0.15 g/100 g body weight). The rats were put under a heating lamp to maintain body temperature.
The HPLC system used in the assay of biological samples consisted of an autosampler (AS950, Jasco, Tokyo, Japan), a Waters Model 600E solvent delivery pump (Millipore, Milford, MA, USA), a Model LC-4C electrochemical detector with a glassy-carbon electrode (Bioanalytical Systems, Inc., West Lafayette, IN, USA), and an integrator (Macintosh LC II with Macintegrator I). A Nucleosil® 10 SA cationic ion-exchange column (10 μm, 300 × 4.0 mm, Macherey-Nagel, Düren, Germany) with a mobile phase comprising NaCl (50 mM) and Na2-EDTA (1.0 mM) in 0.1 M ammonium phosphate buffer (pH 2.0) at a flow rate of 2.0 ml/min was used for the elution of the samples. […] HPLC assay methods were validated by determining the precision and accuracy of intra-day and inter-day analysis of serum standards over a period of 6 days. The coefficients of variation for inter- and intraday assays were less than 15% for both compounds (n = 6).
According to the literature, the area under the plasma concentration-time profile (AUC) was calculated by log-linear trapezoidal rule. Plasma concentration after i.v. administration of drugs were also fitted to a […] model using PCNONLIN and Akeike's Information Criteria, sum of squared residuals, residual plot and correlation coefficient were use for determination of the compartment model. The residual area after the last observed data point was calculated as Clast/k, where Clast is the last observed concentration, and k is the corresponding terminal rate constant. Terminal half-life (t1/2) was estimated compartment model-independently. The fraction of absorption was calculated according to Equation 1.
(1) BA=AUCoral⋅koral/doseoral/AUCiv⋅kiv/doseiv×100%
Blood samples were collected from the carotid artery at time intervals of from 1 to 180 min. Heparin sodium (25 I.U./ml in 0.3 ml of saline) was added to blood samples, and were then centrifuged at 6,600 g for 5 min. Plasma was stored at -78°C until being analyzed. A 200 μl of the plasma sample in a 10 ml test tube was mixed with 500 μl of 1.0 M Tris buffer (pH 8.6, adjusted by EDTA-2Na^+) and 10 μl of 3,4-dihydroxybenzylamine (DHBA, 2 μg/ml) was added as internal standard. Alumina 100 mg was then added and then shake for 15 sec and the supernatant was decanted. The alumina was washed four times with 5 ml of water, and the adsorbed compounds on the alumina was eluted with 200 μl of an acidic solution (0.9 ml of glacial acetic acid in 4.0 ml of 1.0 M phosphate buffer). A 30 μl of the eluent was then analyzed by HPLC.

[5] = tested on: striatal dopamine; assay: Brain microdialysis of striatal dopamine after i.v. injection; format: in vivo, Sprague-Dawley rats; conditions: after i.v. injection 50 mg/kg
Description: Single dose d-phenylglycine-l-dopa (50 mg/kg in 2.5 mL of normal saline) was administered i. v. via femoral vein to anesthetized male Sprague-Dawley rats (280 - 320 g). The body temperature of the rats was maintained at 37°C with a heating pad throughout the experiment. The rat was immobilized in a stereotaxic frame (David Kopf Instruments, Tujunga, CA, USA), the skull was surgically exposed, and a hole was drilled with a trephine into the skull based on stereotaxic coordinates. The brain microdialysis system consisted of a CMA/100 microinjection pump (CMA, Stockholm, Sweden) and a microdialysis probe. The dialysis probes (3 mm in length) were made of silica capillary in a concentric design with their tips covered by dialysis membrane (Spectrum, 150 μm outer diameter with a cut-off at nominal molecular mass of 13000, Laguna Hills, CA, USA). The probe was placed into right striatum (0.2 mm anterior to bregma and 3.2 mm lateral to midline) and perfused with Ringer's solution (147 mM Na+; 2.2 mM Ca++; 4 mM K+; pH 7.0) at a flow-rate of 1 μl min^-1. The position of each probe was verified at the end of experiments. The dialysates was collected at 10 min intervals and aliquots of 10 μl was assayed by microbore HPLC. […]

[6] = tested on: 6-OHDA-treated unilateral striatal-lesioned rats; conditions: 10 mg/kg
[7] = oral, dose equivalent to 5.97 mg/kg l-dopa, rats

SMILES | Inhibition of BBMV uptake of d-phenylglycine-l-dopa by added competitor [1] | Blood concentration [3] | AUC ([4]; iv) | half-life ([4]; iv) | clearance ([4]; iv) | Vd ([4]; iv) | AUC ([4]; po) | Tmax ([4]; po) | half-life ([4]; po) | Fraction of absorption (BA) [4] | Clp [4, 7] | also measured
CC1=C(C(=O)O)N2C(=O)[C@@H](NC(=O)[C@H](N)C3=CCC=CC3)[C@H]2SC1 [cephradine] | significantly inhibited |  |  |  |  |  |  |  |  |  |  | 
N[C@@H](C(=O)N[C@@H](Cc1ccc(O)c(O)c1)C(=O)O)c1ccccc1 [d-phenylglycine-l-dopa] (H-[dPhg]-[Dopa]-OH) |  | 64.6 ± 5.40 µg/mL | 1040 ng·h/mL | 254 ± 73 min | 180 ± 60 mL/min/kg | 11 ± 5.08 L/kg | 481 ng·h/mL | 38.3 min | 142 ± 23.7 min | 27.58 ± 4.56% | 0.29 ± 0.10 L/kg/min | recovery at 90 min, 0.02 mg/ml ([2]; male, Wistar, rat, intestinal mucosa suspension, 90 min of incubation, read-out: Recovery after incubation with intestinal mucosal suspension): ~100%; Steady-state plasma concentration after perfusion, molar ratio, higher than that of l-dopa ([3]; jejunal perfusion, rats): 31.1 fold; Molar ratio of blood concentration ([3]; steady-state, jejunal perfusion): 31.1; Systemic bioavailability (AUC), times lower than that of l-dopa ([4]; i.v., rats): 7 times; Vdss [4, 7]: 35.7 ± 17.1 L/kg; Fraction of oral absorption, fold higher than that of l-dopa ([4]; rats, oral): 31 fold; Oral bioavailability, times higher than that of l-dopa ([4]; rats, oral): 31.7 times; Time at which striatal dopamine had not reached plateau [5]: > 3.5 h; Striatal dopamine level ([5]; anesthetized rats, dialysates at 10 min intervals): increased gradually
NCC(=O)N[C@@H](Cc1ccccc1)C(=O)O [l-Gly-l-Phe, reference compound] (H-Gly-Phe-OH) | significantly inhibited |  |  |  |  |  |  |  |  |  |  | Recovery after incubation with intestinal mucosal suspension ([2]; 2 min of incubation): 50%

Continued, in another order:

Inhibition of BBMV uptake of d-phenylglycine-l-dopa by added competitor [1] | Blood concentration [3] | AUC ([4]; iv) | half-life ([4]; iv) | clearance ([4]; iv) | Vd ([4]; iv) | AUC ([4]; po) | Tmax ([4]; po) | half-life ([4]; po) | Fraction of absorption (BA) [4] | Clp [4, 7] | SMILES | also measured
significantly inhibited |  |  |  |  |  |  |  |  |  |  | NCC(=O)N1CCC[C@H]1C(=O)O [l-Gly-l-Pro] (H-Gly-Pro-OH) | 
less inhibited |  |  |  |  |  |  |  |  |  |  | N[C@@H](Cc1ccccc1)C(=O)O [l-Phe] | 
 | 1.24^a μg/ml | 7660 ng·h/mL | 102 ± 27.7 min | 20 ± 20 mL/min/kg | 1.22 ± 0.89 L/kg | 456 ng·h/mL | 25 min | 185 ± 46.2 min | 0.87 ± 0.24% | 0.01 ± 0.00 L/kg/min | N[C@@H](Cc1ccc(O)c(O)c1)C(=O)O [l-dopa, reference compound] | Reduction in rotation (mean ± SE %) [6]: 9.9 ± 1.4%
